Data on 29 molecules can be found in patent US7358276B2, “2-Oxo-1-pyrrolidine derivatives, processes for preparing them and their uses” (UCB, S.A., priority 2000, dated 2008).

Structures are written as SMILES.

Data set [1] has as its target T1, Levetiracetam Binding Site (LBS), rat cerebral cortex membranes (Rattus norvegicus, UniProt Q02563).
T1 construct: The crude membrane pellet obtained is resuspended in 50 mmol/l Tris-HCl (pH 7.4); from tissue; host or cells: rat cerebral cortex crude membranes (male Sprague-Dawley)
Put plainly: LBS binding assay (competitive binding, [3H]-2-[4-(3-azidophenyl)-2-oxo-1-pyrrolidinyl]butanamide). Conditions: 4° C., 120 min.

The subject of data set [2] is audiogenic seizures in sound-susceptible mice. Briefly: Animal model of sound-susceptible mice (audiogenic seizures). The data set is classed as in vivo. Conditions: intraperitoneally 60 minutes before induction of audiogenic seizures; doses given in mol/kg. An excerpt: The activity of the compounds of formula I, or their pharmaceutically acceptable salts, as anticonvulsants can be determined in the audiogenic seizures model. The objective of this test is to evaluate the anticonvulsant potential of a compound by means of audiogenic seizures induced in sound-susceptible mice, a genetic animal model with reflex seizures. In this model of primary generalised epilepsy, seizures are evoked without electrical or chemical stimulation and the seizure types are, at least in part, similar in their clinical phenomenology to seizures occurring in man (Löscher W. & Schmidt D., Epilepsy Res. (1998), 2, p. 145-181; Buchhalter J. R., Epilepsia (1993), 34, S31-S41). Results obtained with compounds of formula I are indicative of a strong pharmacological effect.
The objective of this test is to evaluate the anticonvulsant potency of a compound in sound-susceptible mice, a genetic animal model with reflex seizures. In this model of primary generalised epilepsy, seizures are evoked without electrical or chemical stimulation and the seizure types are, at least in part, similar in their clinical phenomenology to seizures occuring in man (Löscher W. & Schmidt D., Epilepsy Res. (1998), 2, 145-181; Buchhalter J. R., Epilepsia (1993), 34, S31-S41).
Male or female genetically sound-sensitive mice (14-28 g; N=10), derived from a DBA strain originally selected by Dr. Lehmann of the Laboratory of Acoustic Physiology (Paris) and bred in the UCB Pharma Sector husbandry unit since 1978, are used. The experimental design consisted of several groups, one group receiving the vehicle control and the other groups different doses of the test-compound. The compounds are administered intraperitoneally 60 minutes before the induction of audiogenic seizures.
For testing, the animals are placed in small cages, one mouse per cage, in a sound-attenuated chamber. After a period of orientation of 30 seconds, the acoustic stimulus (90 dB, 10-20 kHz) is delivered for 30 seconds via loudspeakers positioned above each cage. During this interval, the mice are observed and the presence of the 3 phases of the seizure activity namely wild running, clonic and tonic convulsions, is recorded. The proportion of mice protected against wild running, clonic and tonic convulsions, respectively, is calculated.
For active compounds, an ED50 value, i.e. the dose producing 50% protection relative to the control group, together with 95% confidence limits, was calculated using a Probit Analysis (SAS/STAT® Software, version 6.09, PROBIT procedure) of the proportions of protected mice for each of the 3 phases of the seizure activity.

T1 sequence (Q02563 whole entry): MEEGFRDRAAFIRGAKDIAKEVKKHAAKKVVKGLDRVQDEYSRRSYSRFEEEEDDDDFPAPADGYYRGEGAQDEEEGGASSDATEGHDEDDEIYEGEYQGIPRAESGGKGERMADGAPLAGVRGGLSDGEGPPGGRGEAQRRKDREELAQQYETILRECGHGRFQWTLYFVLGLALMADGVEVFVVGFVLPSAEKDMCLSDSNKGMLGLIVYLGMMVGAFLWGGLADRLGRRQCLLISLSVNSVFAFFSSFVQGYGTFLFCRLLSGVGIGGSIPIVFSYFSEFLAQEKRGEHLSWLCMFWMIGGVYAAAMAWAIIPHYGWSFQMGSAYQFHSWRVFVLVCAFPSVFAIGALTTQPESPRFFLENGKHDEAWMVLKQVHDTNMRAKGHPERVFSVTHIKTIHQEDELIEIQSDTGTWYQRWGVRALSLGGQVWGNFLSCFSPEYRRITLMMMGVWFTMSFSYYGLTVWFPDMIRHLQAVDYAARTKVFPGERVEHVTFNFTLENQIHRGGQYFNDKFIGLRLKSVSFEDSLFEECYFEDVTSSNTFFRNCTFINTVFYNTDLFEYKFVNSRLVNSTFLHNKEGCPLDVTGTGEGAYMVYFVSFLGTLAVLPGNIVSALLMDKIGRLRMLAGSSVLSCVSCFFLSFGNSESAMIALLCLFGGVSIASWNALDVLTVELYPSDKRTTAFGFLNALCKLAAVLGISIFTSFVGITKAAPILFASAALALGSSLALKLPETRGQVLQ

`CCC(C(N)=O)N1CC(c2cccc(C)c2)CC1=O` (centres unmarked) [Compound 219] showed a melting point of 79.4 °C. Also, the “pKi (affinity for the levetiracetam binding site)” value (“pKi” for short) in data set [1] is reported as “Particular affinity”. In addition, the “ED50 (dose producing 50% protection against audiogenic seizures)” value in data set [2] was “Particularly promising activity”.

On to `CC[C@@H](C(N)=O)N1CC(c2cccs2)CC1=O` (stereo partly drawn) [Compound 71, (2S)-2-[2-oxo-4-(2-thienyl)-1-pyrrolidinyl]butanamide], for which the melting point came out at 69.3 °C. Moreover, in data set [1], the “pKi” value was “Particular affinity”. Moreover, the “ED50 (dose producing 50% protection against audiogenic seizures)” value in data set [2] was “Particularly promising activity”.

`CC[C@@H](C(N)=O)N1CC(CCC(F)(F)F)CC1=O` (some centres unmarked) [Compound 215] came in with a melting point of 115.9 °C. Besides, in data set [1], the “pKi” value was “Particular affinity”. In addition, in data set [2], the “ED50 (dose producing 50% protection against audiogenic seizures)” value is listed as “Particularly promising activity”.

Consider `C=CCC1CC(=O)N([C@@H](CC)C(N)=O)C1` (stereo partly drawn) [Compound 228, (2S)-2-(4-allyl-2-oxo-1-pyrrolidinyl)butanamide], for which the melting point amounted to 58.3 °C. Also, the “pKi” value in data set [1] is on record as “Particular affinity”. For the same molecule, the “ED50 (dose producing 50% protection against audiogenic seizures)” value in data set [2] is reported as “Particularly promising activity”.

For `CC[C@@H](C(N)=O)N1CC(CI)CC1=O` (stereo partly drawn) [Compound 10, (2S)-2-[4-(iodomethyl)-2-oxo-1-pyrrolidinyl]butanamide], the melting point was 91.4 °C. Moreover, the “pKi” value in data set [1] is “Particular affinity”. In addition, the “ED50 (dose producing 50% protection against audiogenic seizures)” value in data set [2] was “Particularly promising activity”.

As to `C=CCC1CC(=O)N([C@@H](CC)C(N)=O)C1` (stereo partly drawn) [Compound 224, (2S)-2-(4-allyl-2-oxo-1-pyrrolidinyl)butanamide], the melting point was 69.2 °C. In data set [1], the “pKi” value is reported as “Particular affinity”. The “ED50 (dose producing 50% protection against audiogenic seizures)” value in data set [2] was “Particularly promising activity”.

`CC[C@@H](C(N)=O)N1CC(c2cc(Br)cc(Br)c2)CC1=O` (some centres unmarked) [Compound 198]: the melting point came to 118.6 °C. Further, the “pKi” value in data set [1] was “Particular affinity”. Also, the “ED50 (dose producing 50% protection against audiogenic seizures)” value in data set [2] is “Particularly promising activity”.

Molecule `CC[C@@H](C(N)=O)N1CC(CI)CC1=O` (some centres unmarked) [Compound 27] had a melting point of 107.7 °C. Further, the “pKi” value in data set [1] is “Particular affinity”. Besides, the “ED50 (dose producing 50% protection against audiogenic seizures)” value in data set [2] is reported as “Particularly promising activity”.

`CC[C@@H](C(N)=O)N1CC(c2cccc(Br)c2)CC1=O` (some centres unmarked) [Compound 180]: the melting point is 99.6 °C. In addition, in data set [1], the “pKi” value was “Particular affinity”. Further, the “ED50 (dose producing 50% protection against audiogenic seizures)” value in data set [2] is recorded as “Particularly promising activity”.

Regarding `CC[C@@H](C(N)=O)N1CC(CCC(F)(F)F)CC1=O` (some centres unmarked) [Compound 214], the melting point came out at 120.9 °C. For the same molecule, the “pKi” value in data set [1] is recorded as “Particular affinity”. Also, the “ED50 (dose producing 50% protection against audiogenic seizures)” value in data set [2] is “Particularly promising activity”.

Consider `CC[C@@H](C(N)=O)N1CC(CCc2ccccc2)CC1=O` (some centres unmarked) [Compound 175], for which the melting point was 89.5 °C. Besides, the “pKi” value in data set [1] is recorded as “Particular affinity”.

For the molecule `CC[C@@H](C(N)=O)N1CC(CN=[N+]=[N-])CC1=O` (stereo partly drawn) [Compound 32, (2S)-2-[4-(azidomethyl)-2-oxo-1-pyrrolidinyl]butanamide], the melting point is 84.8 °C. Also, the “pKi” value in data set [1] is “Particular affinity”. The “ED50 (dose producing 50% protection against audiogenic seizures)” value in data set [2] is given as “Particularly promising activity”.

Consider `CC[C@@H](C(N)=O)N1CC(Cn2cnnn2)CC1=O` (stereo partly drawn) [Compound 40, (2S)-2-[2-oxo-4-(1H-tetrazol-1-ylmethyl)-1-pyrrolidinyl]butanamide], for which the melting point was 82.3 °C. For the same molecule, the “pKi” value in data set [1] is reported as “Particular affinity”. Further, the “ED50 (dose producing 50% protection against audiogenic seizures)” value in data set [2] is “Particularly promising activity”.

`CC[C@@H](C(N)=O)N1CC(c2ccccc2)CC1=O` (some centres unmarked) [Compound 22]: the melting point was determined as 89 °C. In addition, the “pKi” value in data set [1] was “Particular affinity”. Further, in data set [2], the “ED50 (dose producing 50% protection against audiogenic seizures)” value was “Particularly promising activity”.

Molecule `CC[C@@H](C(N)=O)N1CC(c2cccc(OC)c2)CC1=O` (some centres unmarked) [Compound 75] had a melting point of 91.3 °C. In data set [1], the “pKi” value is recorded as “Particular affinity”.

`CCC(C(N)=O)N1CC(c2ccccc2F)CC1=O` (centres unmarked) [Compound 209] displayed a melting point of 123.7 °C. Besides, in data set [1], the “pKi” value was “Particular affinity”. In data set [2], the “ED50 (dose producing 50% protection against audiogenic seizures)” value is listed as “Particularly promising activity”.

The molecule `CCC(C(N)=O)N1CC(C#CBr)CC1=O` (centres unmarked) [Compound 267, 2-(4-bromo-ethynyl-2-oxo-1-pyrrolidinyl)butanamide] registered a melting point of 103.9 °C. In data set [1], the “pKi” value was “Particular affinity”.

Regarding `CCC(C(N)=O)N1CC(c2ccc(Cl)cc2Cl)CC1=O` (centres unmarked) [Compound 188], the melting point came to 154.7 °C. The “pKi” value in data set [1] was “Particular affinity”. Also, the “ED50 (dose producing 50% protection against audiogenic seizures)” value in data set [2] is “Particularly promising activity”.

`C=C[C@@H]1CC(=O)N([C@@H](CC)C(N)=O)C1` [Compound 92] came in with a melting point of 79 °C. Further, in data set [1], the “pKi” value was “Particular affinity”. For the same molecule, in data set [2], the “ED50 (dose producing 50% protection against audiogenic seizures)” value is “Particularly promising activity”.

Molecule `CCC(C(N)=O)N1CC(c2ccc(Cl)c(Cl)c2)CC1=O` (centres unmarked) [Compound 200] returned a melting point of 154.4 °C. Besides, in data set [1], the “pKi” value is “Particular affinity”. Further, in data set [2], the “ED50 (dose producing 50% protection against audiogenic seizures)” value is listed as “Particularly promising activity”.

Molecule `CC[C@@H](C(N)=O)N1CC(CC2CC2)CC1=O` (some centres unmarked) [Compound 212] showed a melting point of 104.4 °C. For the same molecule, the “pKi” value in data set [1] is recorded as “Particular affinity”. Besides, the “ED50 (dose producing 50% protection against audiogenic seizures)” value in data set [2] is reported as “Particularly promising activity”.

In turn, `C=C[C@H]1CC(=O)N([C@@H](CC)C(N)=O)C1` [Compound 93] showed a melting point of 68.3 °C. In data set [1], the “pKi” value was “Particular affinity”. The “ED50 (dose producing 50% protection against audiogenic seizures)” value in data set [2] is “Particularly promising activity”.

`CC[C@@H](C(N)=O)N1CC(CC(C)=O)CC1=O` (some centres unmarked) [Compound 229] showed a melting point of 90.6 °C. Moreover, the “pKi” value in data set [1] is on record as “Particular affinity”. Also, in data set [2], the “ED50 (dose producing 50% protection against audiogenic seizures)” value is “Particularly promising activity”.

Molecule `CCC(C(N)=O)N1CC(C=C(Br)Br)CC1=O` (centres unmarked) [Compound 33] showed a melting point of 134.8 °C. Besides, the “pKi” value in data set [1] is “Particular affinity”. For the same molecule, in data set [2], the “ED50 (dose producing 50% protection against audiogenic seizures)” value is reported as “Particularly promising activity”.

On to `CCC(C(N)=O)N1CC(/C=C\F)CC1=O` (centres unmarked) [Compound 162], for which the melting point stood at 105 °C. For the same molecule, the “pKi” value in data set [1] was “Particular affinity”. For the same molecule, the “ED50 (dose producing 50% protection against audiogenic seizures)” value in data set [2] is given as “Particularly promising activity”.

Consider `CC[C@@H](C(N)=O)N1CC(CCc2ccccc2)CC1=O` (some centres unmarked) [Compound 176], for which the melting point turned out to be 100.2 °C. In addition, the “pKi” value in data set [1] was “Particular affinity”.

As for `CC[C@@H](C(N)=O)N1CC(c2ccccc2OC)CC1=O` (some centres unmarked) [Compound 73], the melting point worked out at 112 °C. In addition, the “pKi” value in data set [1] is reported as “Particular affinity”.

`CCC(C(N)=O)N1C[C@H](CC(C)(F)F)CC1=O` (stereo partly drawn) [Compound 265, 2-[(4S)-4-(2,2-difluoropropyl)-2-oxopyrrolidinyl]butanamide] showed a melting point of 110.9 °C. In addition, in data set [1], the “pKi” value is “Particular affinity”.

In turn, `CCC(C(N)=O)N1CC(CI)CC1=O` (centres unmarked) [Compound 103] returned a melting point of 171.7 °C. Also, the “pKi” value in data set [1] is on record as “Particular affinity”.
